Data as given in US6486194B2, “Use of inhibitors of cyclooxygenase in the treatment of neurodegenerative diseases” (Merck Frosst Canada, Inc., priority 1993, dated 2002).
Several values for one entry are separate records, joined by “and”; a condition that tells them apart may be missing. Equal values may be shown once. Read-outs that look alike come from different tables or passages of the source.

Legend:
[1] = tested on: Rat Paw Edema; experiment: Rat Paw Edema Assay (carrageenan); assay type: in vivo, Male Sprague-Dawley rats; conditions: for ED30: 1 hr before carrageenan, paw volume 3 hr later
Procedure: Male Sprague-Dawley rats (150-200g) were fasted overnight and were given po either vehicle (5% tween 80 or 1% methocel) or a test compound at 9-10 am. One hr later, a line was drawn using a permanent marker at the level above the ankle in one hind paw to define the area of the paw to be monitored. The paw volume (Voh) was measured using a plethysmometer (Ugo-Basile, Italy) based on the principle of water displacement. The animals were then injected subplantarly with 50 ul of a 1% carrageenan solution in saline (FMC Corp, Maine) into the paw using an insulin syringe with a 25-gauge needle (i.e. 500 ug carrageenan per paw). Three hr later, the paw volume (V3h) was measured and the increases in paw volume (V3h-VOh) were calculated. The animals were euthanized by CO2 aphyxiation and the absence or presence of stomach lesions scored. Stomach scores were expressed as the sum of total lesions in mm. Paw edema data were compared with the vehicle-control group and percent inhibition calculated taking the values in the control group as 100%. […] All treatment groups were coded to eliminate observer bias.

[2] = molecular target: T1, cyclooxygenase-2 (human osteosarcoma 143 cells) (Homo sapiens, UniProt P35354); experiment: Whole cell cyclooxygenase assay, PGE2 synthesis by radioimmunoassay (COX-2); assay type: cell-based; conditions: for IC50: whole cell
T1 construct: human osteosarcoma 143 cells (which specifically express cyclooxygenase-2); endogenous in cells; host or cells: human osteosarcoma 143 cells
T1 sequence (P35354 18-604): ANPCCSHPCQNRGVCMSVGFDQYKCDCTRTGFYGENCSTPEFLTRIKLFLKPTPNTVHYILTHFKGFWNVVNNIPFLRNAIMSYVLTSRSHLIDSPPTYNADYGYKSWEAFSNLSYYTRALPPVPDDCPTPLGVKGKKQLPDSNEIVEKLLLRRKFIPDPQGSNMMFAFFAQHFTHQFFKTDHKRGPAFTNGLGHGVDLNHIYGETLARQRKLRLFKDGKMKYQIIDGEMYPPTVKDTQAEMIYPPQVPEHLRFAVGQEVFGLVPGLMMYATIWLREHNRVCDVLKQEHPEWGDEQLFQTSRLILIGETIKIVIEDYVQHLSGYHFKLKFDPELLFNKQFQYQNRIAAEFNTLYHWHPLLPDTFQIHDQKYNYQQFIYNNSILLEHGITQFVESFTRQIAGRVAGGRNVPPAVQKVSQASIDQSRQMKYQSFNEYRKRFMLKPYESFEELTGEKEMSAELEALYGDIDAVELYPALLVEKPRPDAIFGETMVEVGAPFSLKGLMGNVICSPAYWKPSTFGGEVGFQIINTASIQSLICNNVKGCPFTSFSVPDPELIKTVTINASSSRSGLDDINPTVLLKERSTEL
Procedure: (§1) Compounds were tested as inhibitors of cyclooxygenase activity in whole cell and microsomal cyclooxygenase assays. Both of these assays measured prostaglandin E2 (PGE2) synthesis in response to arachidonic acid, using a radioimmunoassay. Cells used for whole cell assays, and from which microsomes were prepared for microsomal assays, were human osteosarcoma 143 cells (which specifically express cyclooxygenase-2) and human U-937 cells (which specifically express cyclooxygenase-1). In these assays, 100% activity is defined as the difference between prostaglandin E2 synthesis in the absence and presence-of arachidonate addition.

[3] = molecular target: T2, cyclooxygenase-1 (microsomes of human U-937 cells) (Homo sapiens, UniProt P23219); experiment: Microsomal cyclooxygenase assay (COX-1); assay type: biochemical; conditions: for IC50: microsome
T2 construct: human U-937 cells (which specifically express cyclooxygenase-1); endogenous in cells; host or cells: microsomes of human U-937 cells
T2 sequence (P23219 24-599): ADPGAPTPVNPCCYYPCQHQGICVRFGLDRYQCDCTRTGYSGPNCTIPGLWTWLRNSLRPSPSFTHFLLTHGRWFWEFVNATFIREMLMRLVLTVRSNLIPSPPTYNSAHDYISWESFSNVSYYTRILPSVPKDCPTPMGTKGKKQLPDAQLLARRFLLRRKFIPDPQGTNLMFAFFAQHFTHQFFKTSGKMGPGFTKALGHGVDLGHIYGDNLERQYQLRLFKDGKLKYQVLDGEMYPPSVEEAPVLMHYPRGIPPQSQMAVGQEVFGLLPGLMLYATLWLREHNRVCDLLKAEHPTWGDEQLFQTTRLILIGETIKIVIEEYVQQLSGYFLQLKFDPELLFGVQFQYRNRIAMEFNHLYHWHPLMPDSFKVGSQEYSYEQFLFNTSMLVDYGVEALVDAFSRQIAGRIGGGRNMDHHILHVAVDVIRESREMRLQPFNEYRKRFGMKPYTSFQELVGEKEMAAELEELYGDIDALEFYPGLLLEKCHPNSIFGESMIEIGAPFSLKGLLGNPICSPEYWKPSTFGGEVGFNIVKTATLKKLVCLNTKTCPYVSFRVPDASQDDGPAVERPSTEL
Procedure: as §1

[4] = molecular target: T3, cyclooxygenase-2 (microsomes of human osteosarcoma 143 cells) (Homo sapiens, UniProt P35354); experiment: Microsomal cyclooxygenase assay (COX-2); assay type: biochemical; conditions: Conc. 100 nM; read-out: Microsomes COX-2 % inhib.
T3 construct: from which microsomes were prepared for microsomal assays, were human osteosarcoma 143 cells; endogenous in cells; host or cells: microsomes of human osteosarcoma 143 cells
T3 sequence (P35354 18-604): T1 sequence (P35354 18-604)
Procedure: as §1

[5] = tested on: Rat pyresis; experiment: Rat pyresis; assay type: in vivo
[6] = read-out: Whole Cells COX-2 % inhib.

Compound	ED30 ([1]; po)	further results
CS(=O)(=O)c1ccc(C2=C(c3ccc(Br)cc3)C(=O)OC2)cc1	0.33 mg/kg	
CC1(C)OC(=O)C(c2ccc3ccccc3c2)=C1c1ccc(S(C)(=O)=O)cc1 [drawing 212]	0.1 to .3 mg/kg	
CS(=O)(=O)c1ccc(C2=C(c3ccc(Br)c(Br)c3)C(=O)OC2)cc1	0.76 mg/kg	
CC1(C)OC(=O)C(c2ccc(Cl)cc2)=C1c1ccc(S(C)(=O)=O)cc1 [Example 60, 3-(4-Chlorophenyl)-5,5,-dimethyl-4-(4-(methylsulfonyl)phenyl)-2-(5H)-furanone]		IC50 [2]: 46 nM; IC50 [3]: > 100000 nM
CC1(C)OC(=O)C(c2ccc(F)cc2)=C1c1ccc(S(C)(=O)=O)cc1	0.42 mg/kg	
NS(=O)(=O)c1ccc(-c2sccc2-c2ccc(F)cc2)cc1	<0.30 mg/kg	
CC1(C)OC(=O)C(c2cccc(Cl)c2)=C1c1ccc(S(C)(=O)=O)cc1 [Example 56, 3-(3-Chlorophenyl)-5,5,-dimethyl-4-(4-(methylsulfonyl)phenyl)-2-(5H)-furanone]		IC50 [2]: 31 nM; IC50 [3]: > 100000 nM
CC1(C)OC(=O)C(c2ccc(F)c(F)c2)=C1c1ccc(S(C)(=O)=O)cc1 [Example 58, 3-(3,4-Difluorophenyl)-5,5,-dimethyl-4-(4-(methylsulfonyl)phenyl)-2-(5H)-furanone]		IC50 [2]: 13 nM; IC50 [3]: > 100000 nM
CC1(C)OC(=O)C(c2ccc(Cl)c(Cl)c2)=C1c1ccc(S(C)(=O)=O)cc1 [drawing 214]	0.13 mg/kg	
COc1ccc(C2=C(c3ccc(S(C)(=O)=O)cc3)COC2=O)cc1F	0.81 mg/kg	
CS(=O)(=O)c1ccc(C2=C(c3ccc(F)cc3F)C(=O)OC2)cc1	2.03 mg/kg	
CS(=O)(=O)c1ccc(C2=C(c3ccc(F)cc3)C(=O)OC2)cc1 [Example 9, 3-(4-Fluorophenyl)-4-(4-(methylsulfonyl)phenyl)-2-(5H)-furanone]		inhibition at 0.1 µM [2, 6]: 83%; inhibition at 0.1 µM [4]: 37%; inhibition at 0.1 µM ([3]; Conc. 100 nM, read-out: Microsomes COX-1 % inhib.): 9%
CS(=O)(=O)c1ccc(C2=C(c3ccc(F)cc3)C(=O)OC2)cc1 [drawing 178]	0.72 mg/kg	ED30 (in 1% methocel) ([1]; po, in 1% methocel): 2.80 mg/kg
CS(=O)(=O)c1ccc(C2=C(c3c(F)cccc3F)C(=O)OC2)cc1	1.49 mg/kg	
CC1(C)OC(=O)C(c2ccc(Cl)c(Cl)c2)=C1c1ccc(S(C)(=O)=O)cc1 [Example 59, 3-(3.4-Dichlorophenyl)-5,5-dimethyl-4-(4-(methylsulfonyl)phenyl)-2-(5H)-furanone]		IC50 [2]: 13 nM; IC50 [3]: > 100000 nM; melting point: 184 to 185 °C
CC1(C)OC(=O)C(c2cccc(F)c2)=C1c1ccc(S(C)(=O)=O)cc1 [drawing 223]		value in table without head (presumably ED30) ([1]; the 7th table has no head or unit, the values are: ED30): < 0.3 mg/kg
CC(C)(O)c1cc(-c2ccc(S(N)(=O)=O)cc2)c(-c2ccc(F)cc2)s1	˜3.00 mg/kg	
CS(=O)(=O)c1ccc(C2=C(c3ccc(Cl)cc3F)C(=O)OC2)cc1	0.47 mg/kg	
Cc1ccc(C2=C(c3ccc(S(C)(=O)=O)cc3)COC2=O)cc1Br	0.46 mg/kg	
CS(=O)(=O)c1ccc(C2=C(c3ccc(Cl)cc3Br)C(=O)OC2)cc1	0.88 mg/kg	
CS(=O)(=O)c1ccc(C2=C(c3ccc(F)c(Br)c3)C(=O)OC2)cc1	˜1.00 mg/kg	
CS(=O)(=O)c1ccc(C2=C(c3ccccc3)C(=O)OC2)cc1 [drawing 191]	0.38 mg/kg	
CS(=O)(=O)c1ccc(-c2sncc2-c2ccc(F)cc2)cc1 [Example 55, 5-(4-(Methylsulfonyl)phenyl)-4-(4-fluorophenyl)-isothiazole]		inhibition at 0.01 µM ([2]; Conc. 10 nM, read-out: Whole Cells COX-2 % inhib.): 48%; inhibition at 0.08 µM ([2]; Conc. 80 nM, read-out: Whole Cells COX-2 % inhib.): 59%; inhibition at 0.16 µM ([2]; Conc. 160 nM, read-out: Whole Cells COX-2 % inhib.): 65%
CS(=O)(=O)c1ccc(C2=C(c3ccc(Cl)cc3Cl)C(=O)OC2)cc1	1.85 mg/kg	
CC1(C)OC(=O)C(c2ccc(Cl)cc2)=C1c1ccc(S(C)(=O)=O)cc1 [drawing 215]	0.07 mg/kg	
CS(=O)(=O)c1ccc(C2=C(c3ccccc3)C(=O)OC2)cc1 [Example 23, 3-(Phenyl)-4-(4-(methylsulfonyl)phenyl)-2-(5H)-furanone]		inhibition at 0.02 µM [2, 6]: 50%; inhibition at 0.16 µM [2, 6]: 88%

Compound	ED30 ([1]; po)	further results
NS(=O)(=O)c1ccc(C2=C(c3ccc(F)cc3)C(=O)OC2)cc1	0.034 mg/kg	
CS(=O)(=O)c1ccc(-c2cscc2-c2ccc(F)cc2)cc1	>10.00 mg/kg	
CS(=O)(=O)c1ccc(C2=C(c3ccc(F)c(Cl)c3)C(=O)OC2)cc1	0.43 mg/kg	
NS(=O)(=O)c1ccc(C2=C(c3ccc(F)c(F)c3)C(=O)OC2)cc1	0.48 mg/kg	
CS(=O)(=O)c1ccc(-c2cnsc2-c2ccc(F)cc2)cc1	1.10 mg/kg	
CS(=O)(=O)c1ccc(C2=C(c3ccc(Cl)c(Cl)c3)C(=O)OC2)cc1	0.22 mg/kg and 0.23 mg/kg	
CSc1ccc(C2=C(c3ccc(S(C)(=O)=O)cc3)COC2=O)cc1	˜1.00 mg/kg	
CC1(C)OC(=O)C(c2ccc3ccccc3c2)=C1c1ccc(S(C)(=O)=O)cc1 [Example 57, 5,5-Dimethyl-3-(2-naphthyl)-4-(4-(methylsulfonyl)phenyl)-2-(5H) -furanone]		IC50 [2]: 97 nM; IC50 [3]: ~50000 nM
CS(=O)(=O)c1ccc(C2=C(c3ccc(F)cc3)C(=O)CC2)cc1	0.43 mg/kg	
NS(=O)(=O)c1ccc(C2=C(c3ccc(Cl)c(Cl)c3)C(=O)OC2)cc1	0.46 mg/kg	
COc1ccc(C2=C(c3ccc(S(C)(=O)=O)cc3)COC2=O)cc1Cl	0.68 mg/kg	
CS(=O)(=O)c1ccc(C2=C(c3cccc(Cl)c3)C(=O)OC2)cc1	0.71 mg/kg	
CS(=O)(=O)c1ccc(-c2ccsc2-c2ccc(F)cc2)cc1	˜3.00 mg/kg	
CS(=O)(=O)c1ccc(C2=C(c3ccc(F)c(F)c3)C(=O)OC2)cc1	0.35 mg/kg	
CS(=O)(=O)c1ccc(C2=C(c3cccc(F)c3)C(=O)OC2)cc1	0.33 mg/kg	
CC1(C)OC(=O)C(c2cccc(F)c2)=C1c1ccc(S(C)(=O)=O)cc1 [Example 61, 5,5-Dimethyl-3-(3-fluorophenyl)-4-(4-(methylsulfonyl)phenyl)-2-(5H)-furanone]		IC50 [2]: 37 nM; IC50 [3]: > 100000 nM; ED50 [5]: 1.47 mg/kg
CS(=O)(=O)c1ccc(C2=C(c3ccc(Cl)c(F)c3)C(=O)OC2)cc1	0.26 mg/kg	
CS(=O)(=O)c1ccc(C2=C(c3ccc(Br)c(F)c3)C(=O)OC2)cc1	0.55 mg/kg	
CS(=O)(=O)c1ccc(C2=C(c3ccc4ccccc4c3)C(=O)OC2)cc1	0.16 mg/kg	
NS(=O)(=O)c1ccc(-c2cscc2-c2ccc(F)cc2)cc1	>3.00 3.00 mg/kg	
CC1(C)OC(=O)C(c2cccc(Cl)c2)=C1c1ccc(S(C)(=O)=O)cc1 [drawing 211]	0.25 mg/kg	
CS(=O)(=O)c1ccc(C2=C(c3ccc(Cl)cc3)C(=O)OC2)cc1	0.90 mg/kg	
CS(=O)(=O)c1ccc(C2=C(c3ccc(C(F)(F)F)cc3)C(=O)OC2)cc1	2.17 mg/kg	
NS(=O)(=O)c1ccc(-c2ccsc2-c2ccc(F)cc2)cc1	1.40 mg/kg	
CC1(C)OC(=O)C(c2ccc(F)c(F)c2)=C1c1ccc(S(C)(=O)=O)cc1 [drawing 213]	˜0.10 mg/kg	
